The values that follow come from patent US7781565B2 (priority 2006, dated 2010).

Entries after “also recorded” stand apart in the source; their conditions may differ.

The subject of this assay is NCI-60 cell lines. In kind it is cell-based, human.

Take RPAGGRT: the “Cell Line (NCI-60 cell line the peptide and its motif are associated with)” value was “PC3 Prostate”.
The same measure, in the same setting: the value for GSITGGS was “IGROV1 Ovarian”.
Regarding IGWGVLG, the “Cell Line the peptide is associated with (peptide recovered from phage library selection on this NCI-60 cell line)” value is listed as “BT-549 Breast”.
On to GVRSITL, for which the “Cell Line the peptide is associated with (peptide recovered from phage library selection on this NCI-60 cell line)” value was “ACHN Renal”.
For the substance GFVAGRT, the “Cell Line (NCI-60 cell line the peptide and its motif are associated with)” value is “SK-MEL-5 Melanoma”.
Still for that read-out and setting: with RYSMASL the entry was “SK-MEL-5 Melanoma”.
GAHGVRL: the “Cell Line the peptide is associated with (peptide recovered from phage library selection on this NCI-60 cell line)” value is given as “SN12C Renal”.
In the case of DWRRRAV, the “Cell Line (NCI-60 cell line the peptide is associated with)” value is listed as “HCT-15 Colon”.
With GLSRGVL, the “Cell Line the peptide is associated with (peptide recovered from phage library selection on this NCI-60 cell line)” value is recorded as “ACHN Renal”.
For the substance LRSWLLF, the “Cell Line (NCI-60 cell line the peptide is associated with)” value was “HT-29 Colon”.
For the substance NSVRGSR, the “Cell Line (NCI-60 cell line the peptide and its motif are associated with)” value is reported as “SK-OV-3-3 Ovarian”.
Regarding AASTRSL, the “Cell Line (NCI-60 cell line the peptide is associated with)” value is “MALME-3M Melanoma”.
Take ASLPPRA: the “Cell Line with which the peptide (and its tripeptide motif) is associated” value (from here on “Cell Line with which the peptide”) is on record as “EKVX-Lung”.
In the case of LRVSRGL, the “Cell Line the peptide is associated with (peptide recovered from phage library selection on this NCI-60 cell line)” value is reported as “TK-10 Renal”.
As to EAGVRLN, the “Cell Line (NCI-60 cell line the peptide and its motif are associated with)” value was “OVCAR-4 Ovarian”.
As for FDRGVEA, the “Cell Line with which the peptide” value is recorded as “K-562-Leukemia”.
Turning to FVPRGSY, the “Cell Line (NCI-60 cell line the peptide and its motif are associated with)” value is on record as “OVCAR-4 Ovarian”.
In the case of WGSGRGN, the “Cell Line with which the peptide” value is recorded as “HL-60-Leukemia”.
For the substance RVGAGWP, the “Cell Line the peptide is associated with (peptide recovered from phage library selection on this NCI-60 cell line)” value is “BT-549 Breast”.
Same read-out and setting: with RGSRWSS the entry was “BT-549 Breast”.
Consider ARGVAEY, for which the “Cell Line (NCI-60 cell line the peptide is associated with)” value was “SF-295 CNS”.
Turning to FLLLSHR, the “Cell Line the peptide is associated with (peptide recovered from phage library selection on this NCI-60 cell line)” value is reported as “SN12C Renal”.
In the case of TRGDAVS, the “Cell Line (NCI-60 cell line the peptide is associated with)” value is “SF-295 CNS”.
As for SDLGLRR, the “Cell Line (NCI-60 cell line the peptide and its motif are associated with)” value is listed as “DU-145 Prostate”.
Consider PRGSLFA, for which the “Cell Line the peptide is associated with (peptide recovered from phage library selection on this NCI-60 cell line)” value is given as “UO31 Renal”.
Take EHPAGGM: the “Cell Line with which the peptide” value was “A549-Lung”.
The same measure, in the same setting: with FLLRSSF the entry was “SR Leukemia”.
For FHFGGSG, the “Cell Line (NCI-60 cell line the peptide and its motif are associated with)” value was “OVCAR-5 Ovarian”.
Same read-out and setting: with INRGSRE the entry was “SK-MEL-28 Melanoma”.
Turning to YDGRLAR, the “Cell Line (NCI-60 cell line the peptide is associated with)” value is listed as “SNB-19 CNS; also recorded: SF-539 CNS”.
As for TGRVVRR, the “Cell Line with which the peptide” value is given as “CCRF-CEM Leukemia”.
For AVRGVAR, the “Cell Line with which the peptide” value is recorded as “HL-60-Leukemia”.
On to GKALRGV, for which the “Cell Line with which the peptide” value is reported as “Hop-62-Lung”.
On to TAGGAVG, for which the “Cell Line (NCI-60 cell line the peptide is associated with)” value was “SW620-Colon”.
Same read-out and setting: the value for VMWVARG was “KM-12C Colon”.
On to SGGLAVA, for which the “Cell Line (NCI-60 cell line the peptide and its motif are associated with)” value was “UACC 257 Melanoma”.
With VMPGSVV, the “Cell Line (NCI-60 cell line the peptide is associated with)” value was “SF-295 CNS”.
As to LRAVEFL, the “Cell Line (NCI-60 cell line the peptide is associated with)” value is reported as “MALME-3M Melanoma”.
On to VRRSSKF, for which the “Cell Line the peptide is associated with (peptide recovered from phage library selection on this NCI-60 cell line)” value is on record as “BT-549 Breast”.
As to LVYSGRL, the “Cell Line (NCI-60 cell line the peptide is associated with)” value was “SW620-Colon”.
GGFLLVS: the “Cell Line (NCI-60 cell line the peptide and its motif are associated with)” value is given as “SK-OV-3-3 Ovarian”.
For the substance AGLGHEG, the “Cell Line with which the peptide” value is “H23-Lung”.
On to AGRGAGG, for which the “Cell Line (NCI-60 cell line the peptide and its motif are associated with)” value is reported as “OVCAR-4 Ovarian”.
With TRDGVRW, the “Cell Line the peptide is associated with (peptide recovered from phage library selection on this NCI-60 cell line)” value was “RXF393 Renal”.
On to RGVGKTK, for which the “Cell Line the peptide is associated with (peptide recovered from phage library selection on this NCI-60 cell line)” value was “MDA-MB-231 Breast”.
As for DVSGRVP, the “Cell Line with which the peptide” value is on record as “HL-60-Leukemia”.
Turning to FSKMRAS, the “Cell Line (NCI-60 cell line the peptide and its motif are associated with)” value is recorded as “DU-145 Prostate”.
With PFHRRAV, the “Cell Line the peptide is associated with (peptide recovered from phage library selection on this NCI-60 cell line)” value is “T-47D Breast”.
EGSGVDC: the “Cell Line with which the peptide” value is “RPMI-8226-Leukemia”.
HSLVSQP: the “Cell Line (NCI-60 cell line the peptide is associated with)” value is “SNB-19 CNS; also recorded: SF-539 CNS”.
As to LYGVRYG, the “Cell Line with which the peptide” value is recorded as “RPMI-8226-Leukemia”.
As for RLHYLRS, the “Cell Line (NCI-60 cell line the peptide and its motif are associated with)” value is listed as “M14 Melanoma”.
As to GSVFGTP, the “Cell Line the peptide is associated with (peptide recovered from phage library selection on this NCI-60 cell line)” value is given as “UO31 Renal”.
Take SRLSYRT: the “Cell Line the peptide is associated with (peptide recovered from phage library selection on this NCI-60 cell line)” value was “TK-10 Renal”.
Regarding GGLVKRL, the “Cell Line (NCI-60 cell line the peptide and its motif are associated with)” value was “SK-MEL-2 Melanoma”.
As to RGRLEVP, the “Cell Line with which the peptide” value is “Molt-4-Leukemia”.
Consider AGGRWNL, for which the “Cell Line (NCI-60 cell line the peptide is associated with)” value is reported as “HT-29 Colon”.
In the case of SRYWLRS, the “Cell Line with which the peptide” value is recorded as “H522-Lung”.
The same measure, in the same setting: the value for HGLGSGT was “RPMI-8226-Leukemia”.
Turning to ALVSSHV, the “Cell Line (NCI-60 cell line the peptide and its motif are associated with)” value is reported as “SK-MEL-2 Melanoma”.
Consider KVVGRLG, for which the “Cell Line (NCI-60 cell line the peptide is associated with)” value is “HCT-116 Colon”.
Same read-out and setting: the value for DVVGVLK was “SF-268 CNS”.
For HVRSSYA, the “Cell Line the peptide is associated with (peptide recovered from phage library selection on this NCI-60 cell line)” value is reported as “HS 578 T Breast”.
On the same count and under the same terms, the value for DDGRVHR was “BT-549 Breast”.
With FTLRVDK, the “Cell Line with which the peptide” value is reported as “K-562-Leukemia”.
Consider GLGLRLG, for which the “Cell Line (NCI-60 cell line the peptide and its motif are associated with)” value was “OVCAR-8 Ovarian”.
Consider LASLGVG, for which the “Cell Line with which the peptide” value is “H23-Lung”.
Regarding TSRGLRL, the “Cell Line (NCI-60 cell line the peptide and its motif are associated with)” value is recorded as “UACC 257 Melanoma”.
With SYWVGSS, the “Cell Line the peptide is associated with (peptide recovered from phage library selection on this NCI-60 cell line)” value is “MCF-7 Breast”.
RGLGRPV: the “Cell Line the peptide is associated with (peptide recovered from phage library selection on this NCI-60 cell line)” value is given as “NCI/ADR-RES Breast”.
For TELVSWS, the “Cell Line with which the peptide” value is recorded as “H322-Lung”.
The same measure, in the same setting: with SRYGVLV the entry was “EKVX-Lung”.
On to GSVSDRF, for which the “Cell Line (NCI-60 cell line the peptide is associated with)” value was “SF-268 CNS”.
Consider AGGRLGL, for which the “Cell Line (NCI-60 cell line the peptide is associated with)” value is reported as “SF-268 CNS”.
As for VNLGGSW, the “Cell Line with which the peptide” value is “H322-Lung”.
Regarding PATRGSV, the “Cell Line with which the peptide” value is “Hop-92-Lung”.
The same measure, in the same setting: the value for AGSIALR was “HL-60-Leukemia”.
As for LLGIGGS, the “Cell Line (NCI-60 cell line the peptide and its motif are associated with)” value is “SK-MEL-28 Melanoma”.
For VMLLRPE, the “Cell Line with which the peptide” value was “HL-60-Leukemia”.
Still for that read-out and setting: the value for PRSSLVV was “H460-Lung”.
On the same count and under the same terms, with AIRAGSD the entry was “K-562-Leukemia”.
Turning to ARGRGSQ, the “Cell Line (NCI-60 cell line the peptide and its motif are associated with)” value is reported as “PC3 Prostate”.
The same measure, in the same setting: with LLSSRRC the entry was “SK-MEL-2 Melanoma”.
With AGDSRLS, the “Cell Line (NCI-60 cell line the peptide is associated with)” value was “HCT-15 Colon”.
With ARHGSSV, the “Cell Line (NCI-60 cell line the peptide and its motif are associated with)” value is listed as “M14 Melanoma”.
VAASESH: the “Cell Line with which the peptide” value is reported as “Hop-62-Lung”.
SRYTLRS: the “Cell Line (NCI-60 cell line the peptide and its motif are associated with)” value is reported as “IGROV1 Ovarian”.
For YLLRALG, the “Cell Line (NCI-60 cell line the peptide is associated with)” value was “SF-268 CNS”.
The same measure, in the same setting: the value for GLGAVGW was “HT-29 Colon”.
In the case of AGRICEG, the “Cell Line with which the peptide” value is on record as “CCRF-CEM Leukemia”.
On the same count and under the same terms, the value for LAGGVPG was “CCRF-CEM Leukemia”.
GGSIDCC: the “Cell Line the peptide is associated with (peptide recovered from phage library selection on this NCI-60 cell line)” value is on record as “SN12C Renal”.
As to AGRFGAR, the “Cell Line (NCI-60 cell line the peptide and its motif are associated with)” value is recorded as “OVCAR-8 Ovarian”.
In the case of AGPSAWL, the “Cell Line with which the peptide” value is reported as “Hop-92-Lung”.
Take FVGSRGV: the “Cell Line (NCI-60 cell line the peptide is associated with)” value is reported as “LOX-IMVI Melanoma”.
With GGSVRHV, the “Cell Line with which the peptide” value was “RPMI-8226-Leukemia”.
Consider SLRSDGA, for which the “Cell Line (NCI-60 cell line the peptide is associated with)” value is “HCT-15 Colon”.
On to GAVSVLA, for which the “Cell Line (NCI-60 cell line the peptide is associated with)” value is listed as “SF-295 CNS”.
For DIALVSP, the “Cell Line with which the peptide” value is reported as “A549-Lung”.
Same read-out and setting: the value for AMRPGRL was “RPMI-8226-Leukemia”.
In the case of GGGSGGG, the “Cell Line (NCI-60 cell line the peptide and its motif are associated with)” value was “OVCAR-4 Ovarian”.
In the case of VGVMGGR, the “Cell Line the peptide is associated with (peptide recovered from phage library selection on this NCI-60 cell line)” value is recorded as “CAIK-1 Renal”.
For the substance IFGAGLR, the “Cell Line (NCI-60 cell line the peptide is associated with)” value is recorded as “LOX-IMVI Melanoma”.
Turning to LLGAGTP, the “Cell Line (NCI-60 cell line the peptide and its motif are associated with)” value is on record as “IGROV1 Ovarian”.
As for VGRLAKG, the “Cell Line with which the peptide” value is “Hop-62-Lung”.
Turning to SAGSHPA, the “Cell Line the peptide is associated with (peptide recovered from phage library selection on this NCI-60 cell line)” value was “SN12C Renal”.
In the case of ARAGSTF, the “Cell Line (NCI-60 cell line the peptide and its motif are associated with)” value was “A498 Renal”.
Consider FFPAGGP, for which the “Cell Line with which the peptide” value is on record as “EKVX-Lung”.
SGGLVLT: the “Cell Line with which the peptide” value is given as “Hop-92-Lung”.
Regarding VGRAGGL, the “Cell Line the peptide is associated with (peptide recovered from phage library selection on this NCI-60 cell line)” value was “MDA-MB-231 Breast”.
Regarding WRLSREG, the “Cell Line (NCI-60 cell line the peptide and its motif are associated with)” value is on record as “SK-MEL-2 Melanoma”.
As for IDLGRVN, the “Cell Line (NCI-60 cell line the peptide and its motif are associated with)” value is “SK-MEL-5 Melanoma”.
For LPCGGLA, the “Cell Line (NCI-60 cell line the peptide is associated with)” value was “SNB-19 CNS; also recorded: SF-539 CNS”.
